According to patent US8293734B2, “Nitroimidazooxazine and nitroimidazooxazole analogues and their uses” (priority 2009, dated 2012):
In brackets after ≈: the same amount, converted by molar mass. Read-outs that look alike come from different tables or passages of the source.

Experiments:
[1] = tested on: Axenically grown L. donovani amastigotes (MHOM-ET-67/L82); test: Axenic Leishmania donovani assay; type: cell-based; details: 70 h incubation, read-out: IC50 L. donovani axen
Experimental: (§1) (c) Antiprotozoal screening. Compounds were evaluated for their activities against both Trypanosoma cruzi amastigotes and Leishmania donovani amastigotes (free or encapsulated in macrophages), according to the following protocols:
(ii) Axenic Leishmania donovani assay. Axenically grown L. donovani amastigotes (MHOM-ET-67/L82) from a healthy culture in log phase were seeded at a density of 1×10^6/mL medium (SM, pH 5.4 plus 10% heat inactivated fetal calf serum) in 96-well microtitre plates (Costar™) and incubated at 37° C. (5% CO2) for 70 h in either medium alone or in the presence of serial (3-fold) dilutions of test compounds (initially prepared as 10 mg/mL stock solutions in DMSO and diluted into medium). Miltefosin was employed as a standard in each assay. After incubation, Resazurin fluorescent dye was added to each well, and incubation was continued for an additional 2 h. The IC50 values were determined from measurements of the fluorescence data.

[2] = tested on: replicating Mycobacterium tuberculosis; test: MABA microplate Alamar blue assay, MIC (aerobic); type: cell-based; details: 192 h
[3] = tested on: Trypanosoma cruzi amastigotes (Tulahuen C2C4 strain); test: Trypanosoma cruzi assay in infected L-6 cells; type: cell-based; details: L6, 96 h incubation, read-out: IC50 T. cruzi
Experimental: as §1
(i) Trypanosoma cruzi assay. L-6 cells (2×10^3) in medium (100 μL of RPMI 1640 supplemented with 2 mM L-glutamine plus 10% heat inactivated fetal calf serum) were seeded in 96-well microtitre plates (Costar™) and incubated at 37° C. (5% CO2) for 1d. A suspension (50 μL) of Trypanosoma cruzi trypomastigotes (5×10^3 of Tulahuen C2C4 strain, containing the β-galactosidase gene) was added, and the cells were incubated at 37° C. (5% CO2) for a further 48 h to establish the infection. The medium was removed and replaced by fresh medium and the infected cells were then incubated at 37° C. (5% CO2) for 96 h in either medium alone or in the presence of serial (3-fold) dilutions of test compounds (initially prepared as 10 mg/mL stock solutions in DMSO and diluted into medium). Benznidazole was employed as a standard in each assay. Following incubation, chlorophenol red glycoside (100 mM) in 0.1% Nonidet P40/PBS (50 μL) was added, and (after 6 h) the absorbance at 540 nm was measured and used to calculate the IC50 values.

[4] = tested on: M. tuberculosis bacteria in the non-replicating state; test: LORA low-oxygen-recovery assay, MIC (anaerobic); type: cell-based; details: Mycobacterium tuberculosis, 264 h; 11 day luminescence-based low-oxygen-recovery assay
[5] = tested on: L. donovani amastigotes (MHOM-ET-67/L82) in mouse macrophages; test: Leishmania donovani infected macrophage assay; type: cell-based; details: 96 h incubation, read-out: IC50 L. donovani macro
Experimental: as §1
(iii) Leishmania donovani infected macrophage assay. Freshly harvested mouse macrophages in medium (RPMI 1640 plus 10% heat inactivated fetal calf serum) were incubated at 37° C. (5% CO2) for 24 h and then infected (1:3 macrophages to amastigotes) with an axenic L. donovani amastigote culture (MHOM-ET-67/L82) in medium (SM, pH 5.4 plus 10% heat inactivated fetal calf serum). The infected macrophages were seeded at a density of 1.2×10^6/mL (by diluting in RPMI+10% FCS) in 16-well slides (Lab-tek™) and incubated at 37° C. (5% CO2) for 24 h. The medium was removed and replaced by fresh medium (RPMI 1640+10% FCS), and this was repeated following mixing. The infected macrophages were then incubated at 37° C. (5% CO2) for 96 h in either medium alone or in the presence of serial (3-fold) dilutions of test compounds (initially prepared as 10 mg/mL stock solutions in DMSO and diluted into medium). Miltefosin was employed as a standard in each assay. […], the slides were fixed (5 min in 100% MeOH) and stained (10% Giemsa, 10 min). The ratio of infected to uninfected macrophages was determined by microscopic examination, and the IC50 values were then calculated by linear regression analysis.

VERO cells (CCL-81) = test: Mammalian cell cytotoxicity assay (tetrazolium dye); type: cell-based; details: Chlorocebus sabaeus, read-out: IC50 VERO
Experimental: (b) Mammalian cell cytotoxicity assay. This was assessed against VERO cells (CCL-81, American Type Culture Collection) in a 72 h exposure, using a tetrazolium dye assay (Falzari et al., 2005).

M. tuberculosis Erdman = test: In vivo mouse acute TB infection assay; design: species or system BALB/c mice; details: 100 mg/kg orally daily 5 days a week for 3 weeks; ratio of average lung CFU reduction to that of PA-824

Structure (SMILES)	IC50 [1] [µg/mL]	MIC [2] [µM]	IC50 [3] [µg/mL]	MIC [4] [µM]	melting point [°C]	IC50 [5] [µg/mL]	IC50 (VERO cells (CCL-81); 72 h exposure) [µM]	In vivo efficacy vs PA-824 (M. tuberculosis Erdman)	IC50 (VERO cells (CCL-81); 72 h) [µM]
O=[N+]([O-])c1cn2c(n1)OCC(COCc1cccc(-c3ccc(OC(F)(F)F)cc3)c1)C2 (stereo not drawn) [Compound 74, 2-nitro-6-({[4′-(trifluoromethoxy)[1,1′-biphenyl]-3-yl]methoxy}methyl)-6,7-dihydro-5H-imidazo[2,1-b][1,3]oxazine]	0.16 (≈ 0.356 µM)	0.22 (≈ 0.0989 µg/mL)	0.94 (≈ 2.09 µM)	2.9 (≈ 1.3 µg/mL)	78 to 80	0.54 (≈ 1.2 µM)	> 128	–	–
O=[N+]([O-])c1cn2c(n1)OC(COCc1cccc(OC(F)(F)F)c1)CC2 (stereo not drawn) [Compound 47, 2-nitro-7-({[3-(trifluoromethoxy)benzyl]oxy}methyl)-6,7-dihydro-5H-imidazo[2,1-b][1,3]oxazine]	0.041 (≈ 0.11 µM)	3.8 (≈ 1.42 µg/mL)	1.1 (≈ 2.95 µM)	15 (≈ 5.6 µg/mL)	100 to 112	0.084 (≈ 0.225 µM)	–	–	–
O=[N+]([O-])c1cn2c(n1)OC(COCc1cccc(-c3ccc(OC(F)(F)F)cc3)c1)CC2 (stereo not drawn) [Compound 50, 2-nitro-7-({[4′-(trifluoromethoxy)[1,1′-biphenyl]-3-yl]methoxy}methyl)-6,7-dihydro-5H-imidazo[2,1-b][1,3]oxazine]	0.041 (≈ 0.0912 µM)	0.24 (≈ 0.108 µg/mL)	6.3 (≈ 14 µM)	5.1 (≈ 2.29 µg/mL)	117 to 119	0.15 (≈ 0.334 µM)	> 128	–	–
CC1(COCc2ccc(OC(F)(F)F)cc2)Cn2cc([N+](=O)[O-])nc2O1 (stereo not drawn) [Compound 25, 2-methyl-6-nitro-2-({[4-(trifluoromethoxy)benzyl]oxy}methyl)-2,3-dihydroimidazo[2,1-b][1,3]oxazole]	0.029 (≈ 0.0777 µM)	–	0.24 (≈ 0.643 µM)	–	110 to 111	0.22 (≈ 0.589 µM)	> 128	0.025	–
COc1ccc(-c2ccc(OCC3(C)Cn4cc([N+](=O)[O-])nc4O3)cc2)cn1 (stereo not drawn) [Compound 8, 2-{[4-(6-methoxy-3-pyridinyl)phenoxy]methyl}-2-methyl-6-nitro-2,3-dihydroimidazo[2,1-b][1,3]oxazole]	0.017 (≈ 0.0445 µM)	0.04 (≈ 0.0153 µg/mL)	4.1 (≈ 10.7 µM)	14 (≈ 5.35 µg/mL)	217 to 219	0.38 (≈ 0.994 µM)	> 128	–	–
CC1(COc2ccc(-c3ccc(C#N)cc3)cc2)Cn2cc([N+](=O)[O-])nc2O1 (stereo not drawn) [Compound 9, 4′-[(2-methyl-6-nitro-2,3-dihydroimidazo[2,1-b][1,3]oxazol-2-yl)methoxy][1,1′-biphenyl]-4-carbonitrile]	0.016 (≈ 0.0425 µM)	0.04 (≈ 0.0151 µg/mL)	1.2 (≈ 3.19 µM)	3.7 (≈ 1.39 µg/mL)	180 to 181	0.2 (≈ 0.531 µM)	> 128	–	–
O=[N+]([O-])c1cn2c(n1)OCC(COCc1ccc(-c3ccc(OC(F)(F)F)cc3)cc1)C2 (stereo not drawn) [Compound 75, 2-nitro-6-({[4′-(trifluoromethoxy) [1,1′-biphenyl]-4-yl]methoxy}methyl)-6,7-dihydro-5H-imidazo[2,1-b][1,3]oxazine]	0.2 (≈ 0.445 µM)	0.3 (≈ 0.135 µg/mL)	0.47 (≈ 1.05 µM)	> 128	135 to 138	0.67 (≈ 1.49 µM)	–	–	> 128
O=[N+]([O-])c1cn2c(n1)OC(COCc1ccc(-c3ccc(OC(F)(F)F)cc3)cc1)CC2 (stereo not drawn) [Compound 51, 2-nitro-7-({[4′-(trifluoromethoxy)[1,1′-biphenyl]-4-yl]methoxy}methyl)-6,7-dihydro-5H-imidazo[2,1-b][1,3]oxazine]	0.046 (≈ 0.102 µM)	0.055 (≈ 0.0247 µg/mL)	15 (≈ 33.4 µM)	1.5 (≈ 0.674 µg/mL)	159 to 161	0.17 (≈ 0.378 µM)	> 128	–	–
CC1(COc2ccc(-c3ccc(F)cc3)cc2)Cn2cc([N+](=O)[O-])nc2O1 (stereo not drawn) [Compound 10, 2-{[(4′-fluoro[1,1′-biphenyl]-4-yl)oxy]methyl}-2-methyl-6-nitro-2,3-dihydroimidazo[2,1-b][1,3]oxazole]	0.04 (≈ 0.108 µM)	0.045 (≈ 0.0166 µg/mL)	2 (≈ 5.41 µM)	–	180 to 181	0.23 (≈ 0.623 µM)	> 128	–	–
CC1(COCc2ccc(OCc3ccccc3)cc2)CCn2cc([N+](=O)[O-])nc2O1 (stereo not drawn) [Compound 54, 7-({[4-(benzyloxy)benzyl]oxy}methyl)-7-methyl-2-nitro-6,7-dihydro-5H-imidazo[2,1-b][1,3]oxazine]	0.047 (≈ 0.115 µM)	0.2 (≈ 0.0819 µg/mL)	0.74 (≈ 1.81 µM)	1.4 (≈ 0.573 µg/mL)	109 to 111	0.095 (≈ 0.232 µM)	> 128	–	–
O=[N+]([O-])c1cn2c(n1)OCC(COCc1cccc(OC(F)(F)F)c1)C2 (stereo not drawn) [Compound 71, 2-nitro-6-({[3-(trifluoromethoxy)benzyl]oxy}methyl)-6,7-dihydro-5H-imidazo[2,1-b][1,3]oxazine]	0.2 (≈ 0.536 µM)	0.33 (≈ 0.123 µg/mL)	0.56 (≈ 1.5 µM)	15 (≈ 5.6 µg/mL)	60 to 61	0.65 (≈ 1.74 µM)	> 128	–	–
CC1(COCc2ccc(OCc3ccccc3)cc2)Cn2cc([N+](=O)[O-])nc2O1 (stereo not drawn) [Compound 26, 2-({[4-(benzyloxy)benzyl]oxy}methyl)-2-methyl-6-nitro-2,3-dihydroimidazo[2,1-b][1,3]oxazole]	0.013 (≈ 0.0329 µM)	0.3 (≈ 0.119 µg/mL)	0.34 (≈ 0.86 µM)	50 (≈ 19.8 µg/mL)	130 to 131	0.36 (≈ 0.91 µM)	> 128	–	–
CC1(COc2ccc(OCc3ccccc3)cc2)Cn2cc([N+](=O)[O-])nc2O1 (stereo not drawn) [Compound 7, 2-{[4-(benzyloxy)phenoxy]methyl}-2-methyl-6-nitro-2,3-dihydroimidazo[2,1-b][1,3]oxazole]	0.016 (≈ 0.042 µM)	0.53 (≈ 0.202 µg/mL)	3.2 (≈ 8.39 µM)	24 (≈ 9.15 µg/mL)	162 to 165	0.4 (≈ 1.05 µM)	–	–	–
